Biological target: T1, Histone-lysine N-methyltransferase EHMT2 (Homo sapiens, UniProt Q96KQ7)
T1 sequence (Q96KQ7 whole entry): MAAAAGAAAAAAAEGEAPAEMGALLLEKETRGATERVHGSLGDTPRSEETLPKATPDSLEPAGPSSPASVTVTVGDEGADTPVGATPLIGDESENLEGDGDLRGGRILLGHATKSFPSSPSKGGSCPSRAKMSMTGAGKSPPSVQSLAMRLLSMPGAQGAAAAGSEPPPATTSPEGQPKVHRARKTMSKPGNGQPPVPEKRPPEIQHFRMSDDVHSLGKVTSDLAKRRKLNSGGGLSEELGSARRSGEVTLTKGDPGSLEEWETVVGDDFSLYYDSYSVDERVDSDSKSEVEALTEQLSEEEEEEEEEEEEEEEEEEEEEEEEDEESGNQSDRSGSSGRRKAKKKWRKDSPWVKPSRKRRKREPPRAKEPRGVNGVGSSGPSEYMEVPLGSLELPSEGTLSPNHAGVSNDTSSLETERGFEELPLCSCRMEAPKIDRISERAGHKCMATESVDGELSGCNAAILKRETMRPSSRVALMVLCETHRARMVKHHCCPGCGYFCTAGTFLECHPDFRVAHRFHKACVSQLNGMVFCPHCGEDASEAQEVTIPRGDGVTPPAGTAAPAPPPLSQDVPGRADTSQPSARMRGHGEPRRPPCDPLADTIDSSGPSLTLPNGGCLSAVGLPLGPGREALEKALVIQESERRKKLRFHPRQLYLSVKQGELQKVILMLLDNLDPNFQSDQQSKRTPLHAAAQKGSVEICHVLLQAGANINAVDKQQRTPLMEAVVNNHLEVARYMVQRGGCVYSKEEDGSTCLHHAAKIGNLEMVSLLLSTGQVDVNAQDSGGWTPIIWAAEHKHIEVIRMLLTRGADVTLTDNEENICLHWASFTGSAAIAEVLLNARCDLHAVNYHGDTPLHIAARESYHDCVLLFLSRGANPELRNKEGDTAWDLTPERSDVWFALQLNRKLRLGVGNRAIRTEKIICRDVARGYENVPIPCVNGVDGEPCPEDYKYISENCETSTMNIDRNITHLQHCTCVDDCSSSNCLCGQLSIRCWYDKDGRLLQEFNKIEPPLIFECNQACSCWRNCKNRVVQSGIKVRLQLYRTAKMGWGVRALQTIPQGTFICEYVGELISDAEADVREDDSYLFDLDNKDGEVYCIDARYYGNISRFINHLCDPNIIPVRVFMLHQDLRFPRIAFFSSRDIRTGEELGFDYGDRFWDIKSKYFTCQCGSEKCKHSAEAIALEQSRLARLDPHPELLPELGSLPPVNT
Experiment: Enzyme Inhibitory Efficacy Assay
Method: Specific experimental methods are as follows. First, the compounds of Examples 1 to 89 of 1 nM to 100 μM (4 conc.) were put into a 384 well plate (25 μL/well), and 2 μM […] enzyme (4 conc.) was put into the 384 well plate (25 μL/well). The plate was then centrifuged at 1,500 rpm for 5 seconds after sealing the plate with plate sealing foil. After incubating the EHMT2/G9a enzyme, SAM, and the compounds of Examples above at room temperature for 10 minutes, 2 μM histone H3 peptide (4 conc.) was added to the 384-well plate (25 μL/well). After sealing the plate with plate sealing foil and centrifuging at 1,500 rpm for 5 seconds, an enzymatic reaction was performed at room temperature for 1 hour. Upon completion of the enzyme reaction, 5 μL each of 200 nM Ulight -Streptavidin (4 conc.) and 8 nM Eu-antibody (4 conc.) was added to each well of the plate. The plate was sealed with plate sealing foil, centrifuged at 1,500 rpm for 5 seconds and reacted at room temperature for 1 hour. The signal values were measured with Envision (Ex 320 nm, Em 665 nm), and all background values obtained by reacting without enzyme were deleted from the measured raw data values.

Row | IC50 | Structure (SMILES)
1 | < 100 nM | COc1cc2c(NC3CCN(C(C)C)CC3)nc(N3CC(F)(F)C3)nc2cc1C#CCCN1CCCC1 [US20230365530, Example 58]
2 | < 100 nM | COc1cc2c(NC3CCN(C(C)C)CC3)nc(N(C)CC(=O)OC(C)(C)C)nc2cc1C#CCCN1CCCC1 [US20230365530, Example 82]

Reference: BindingDB's records for patent US20230365530 (The Asean Foundation, 2023)
